Assay results as given in patent US10913757B2, “Hydroxycinnamic derivatives, methods and uses thereof” (UNIVERSIDADE DO PORTO, priority 2016, dated 2021).

Experiments:
[1] = Lipophilic properties by electrochemistry at ITIES (transfer potential); type: physicochemical; details: aqueous phase to 1,6-dichlorohexane, DPV, C=0.32 mM
Description: In an embodiment, AntiOxCINs lipophilic properties were evaluated at physiological pH by electrochemistry. The used technique is often used to mimic the transfer of ionic drugs through biological membranes as the process occurs at the interface between two immiscible electrolyte solutions (ITIES). The transfer potential (Etr) at which the ionic drug, initially present in the aqueous phase (C=0.32 mM), is transferred to the 1,6-dichlorohexane (DCH) phase is measured by differential pulse voltammetry (DPV). In the ITIES model, the transfer potential (Etr) becomes less positive with the increasing of the drug lipophilic character.
In an embodiment, the electrochemical analytical data was obtained using a computer controlled potentiostat Autolab PGSTAT302N (Metrohm Autolab, Utrecht, Netherlands). Generally, cyclic voltammetry (CV) data was acquired at a scan rate of 50 mVs^−1. Differential pulse voltammetry (DPV) results were acquired at a step potential of 4 mV, pulse amplitude of 50 mV and scan rate of 8 mVs^−1. The electrochemical signals were monitored by the General Purpose Electrochemical System (GPES) version 4.9, software package. All electrochemical experiments were performed at room temperature in an electrochemical cell that was placed in a Faraday cage in order to minimize the contribution of background noise to the analytical signal.
In an embodiment, the process of evaluation of AntiOxCINs redox properties was conducted as follows: stock solutions of each compound (10 mM) were prepared by dissolving the appropriate amount in ethanol. The voltammetric working solutions were prepared in the electrochemical cell, at a final concentration of 0.1 mM. The […] supporting electrolyte was prepared by diluting […] to 100 mL. Voltammetric data was acquired in a three-electrode system consisting of a glassy carbon electrode (GCE, d=2 mm) as working electrode, a counter electrode of platinum wire and a saturated Ag/AgCl reference electrode. In an embodiment, the evaluation of AntiOxCINs lipophilic properties was performed as follows: the electrochemical cell was a four-electrode system with arrays of micro liquid-liquid interfaces (μlTIES) containing two Ag/AgCl reference electrodes and two counter electrodes of Pt, one in each phase. The microporous membrane was sealed with a fluorosilicone sealant (Dow Corning 730) onto a glass cylinder which was filled with 4.0 mL of the aqueous phase, where the aliquots of AntiOxCINs solutions were added. The membrane was then immersed into the organic phase contained in the cell. The organic phase reference solution (a 2 mM BTPPACI+2 mM NaCl aqueous solution) was mechanically stabilized The aqueous supporting electrolyte solution was a Tris-HCl buffer 10 mM pH 7.0.

[2] = GO radical scavenging activity (TAC assay); type: biochemical; details: ethanol, absorbance 428 nm
Excerpt: (§1) In an embodiment, the AntiOxCINs antioxidant ranking activity hierarchy was established by in vitro non-cell methods. The selected total antioxidant capacity (TAC) assays (DPPH, ABTS and GO) involved the spectrophotometric measurement of the radical absorbance decrease as a result of an in situ radical deactivation by an antioxidant. Compounds with higher antioxidant activity display lower IC50 values. […] This decrease was attenuated/ameliorated by the increment of the spacer length and/or the introduction of additional hydroxyl group in the aromatic ring.
(§2) The radical scavenging activity of AntiOxCINs was evaluated by means of total antioxidant capacity assays based on DPPH., ABTS.^+ and GO. radicals. All these methods involved the spectrophotometric measurement of the absorbance decrease resulting from radical (DPPH., ABTS.^+ or GO.) deactivation with an antioxidant. The results were expressed in IC50, which is defined as the minimum antioxidant concentration necessary to reduce the amount of radical by 50%. Antioxidant assays were performed in a multiplate reader (Powerwave XS Microplate Reader) of Bio-Tech instruments.
In an embodiment, the GO′ scavenging activity was evaluated as follows: solutions of test compounds with concentrations from 5 μM to 75 μM were prepared in ethanol. An ethanolic solution of 5 mM GO′ was prepared and diluted to reach the absorbance of 1.00±0.02 at 428 nm. The addition (20 μL) in triplicate of compound solution to GO. solution (180 μL) was followed by absorbance measurement at 428 nm over 30 minutes, in the dark, at room temperature. […] Dose-response curves were established for the determination of IC50 values. Data are means±SEM of three independent experiments.

[3] = ABTS radical cation scavenging activity (TAC assay); type: biochemical; details: ethanol
Excerpt: as §1, §2
In an embodiment, the ABTS.^+ scavenging activity was evaluated as follows: ethanolic solutions of the test compounds with increasing concentrations (range between 10 μM and 500 μM) were prepared. ABTS.^+ radical cation solution was obtained by addition of 150 mM aqueous potassium persulfate solution (163 μL) to 10 mL of 7 mM aqueous ABTS solution followed by storage in the dark at room temperature for 16 h (2.45 mM final concentration). The solution was then diluted in ethanol to reach the absorbance of 0.72±0.02. After addition of the compound (20 μL), in triplicate, to ABTS.^+ solution (180 μL) the spectrophotometric measurement was carried out each minute over 15 minutes. […] Dose-response curves were established for the determination of IC50 values. Data are means±SEM of three independent experiments.

## CS(=O)(=O)[O-].O=C(/C=C/c1ccc(O)c(O)c1)NCCCCCCCC[P+](c1ccccc1)(c1ccccc1)c1ccccc1 [AntiOxCIN3, (E)-(8-(3-(3,4-dihydroxyphenyl)acrylamido)octyl)triphenylphosphoniummethanesulfonate]
[1]
  Etr (transfer potential): 0.345 V
[2]
  IC50: 2.8 µM
[3]
  IC50: 27.9 µM

## O=C(O)/C=C/c1ccc(O)c(O)c1 [Caffeic acid, caffeic acid, reference compound]
[2]
  IC50: 3.4 µM
[3]
  IC50: 17.9 µM

## CS(=O)(=O)[O-].O=C(/C=C/c1cc(O)c(O)c(O)c1)NCCCCCCCC[P+](c1ccccc1)(c1ccccc1)c1ccccc1 [AntiOxCIN5, (E)-(8-(3-(3,4,5-trihydroxyphenyl)acrylamido)octyl)triphenylphosphonium methanesulfonate]
[1]
  Etr (transfer potential): 0.423 V
[2]
  IC50: 2.3 µM
[3]
  IC50: 8.7 µM

## CS(=O)(=O)[O-].O=C(/C=C/c1ccc(O)c(O)c1)NCCCCCC[P+](c1ccccc1)(c1ccccc1)c1ccccc1 [AntiOxCIN2, (E)-(6-(3-(3,4-dihydroxyphenyl)prop-2-enamido)hexyl)triphenylphosphonium methanesulfonate]
[1]
  Etr (transfer potential): 0.396 V
[2]
  IC50: 4.1 µM
[3]
  IC50: 30.5 µM

## CS(=O)(=O)[O-].O=C(/C=C/c1ccc(O)c(O)c1)NCCCCCCCCCC[P+](c1ccccc1)(c1ccccc1)c1ccccc1 [AntiOxCIN6, (E)-(10-(3-(3,4-dihydroxyphenyl)acrylamido)decyl)triphenylphosphonium methanesulfonate]
[1]
  Etr (transfer potential): 0.291 V
[2]
  IC50: 2.7 µM
[3]
  IC50: 23.5 µM

## CS(=O)(=O)[O-].O=C(/C=C/c1cc(O)c(O)c(O)c1)NCCCCCCCCCC[P+](c1ccccc1)(c1ccccc1)c1ccccc1 [AntiOxCIN7, (E)-(10-(3-(3,4,5-trihydroxyphenyl)acrylamido)decyl)triphenylphosphonium methanesulfonate]
[1]
  Etr (transfer potential): 0.377 V
[2]
  IC50: 2.5 µM
[3]
  IC50: 7.5 µM

## CS(=O)(=O)[O-].O=C(/C=C/c1cc(O)c(O)c(O)c1)NCCCCCC[P+](c1ccccc1)(c1ccccc1)c1ccccc1 [AntiOxCIN4, (E)-(6-(3-(3,4,5-trihydroxyphenyl)prop-2-enamido)hexyl)triphenylphosphonium methanesulfonate]
[1]
  Etr (transfer potential): 0.498 V
[2]
  IC50: 3.1 µM
[3]
  IC50: 12.2 µM
